Experimental data reported in PMC5583658, “6,7-dimethoxy-1,2,3,4-tetrahydro-isoquinoline-3-carboxylic acid attenuates heptatocellular carcinoma in rats with NMR-based metabolic perturbations” (Future Science OA, 2017).
Entries after “also recorded” stand apart in the source; their conditions may differ.

Legend:
Huh-7 cells = conditions: in vitro, MTT assay; M1 isolated from MP seeds; cited from earlier work
[1] = tested on: diethylnitrosamine-induced hepatocarcinogenic rats; assay: Histopathological studies of liver (hematoxylin and eosin); assay type: in vivo, albino Wistar rats; conditions: DEN+M1 50 and 100 mg/kg orally; 40X
Procedure: (§1) All animals were randomly divided into five groups of six animals each. Drugs were suspended in 0.25% CMC, subjected to 28 days’ treatment orally and divided as follows: Group I: 0.25% CMC (2 ml/kg), Group II: DEN (8 mg/kg, intraperitoneally), Group III: DEN+5-fluorouracil (5-FU, 10 mg/kg, intraperitoneally), Group IV: DEN+M1 (50 mg/kg, orally) and Group V: DEN+M1 (100 mg/kg, orally). The procedure to induce HCC was adopted from a paper by Song et al. where it is shown that DEN produces HCC at 8 mg/kg intraperitoneal injection for 28 days to albino Wistar rats. After initial 1 week of adaptive inhabitation, all rats of group II–V were administered with DEN (8 mg/kg, intraperitoneally) for 28 days. After 28 days, 5-FU and M1 were given for 15 days as mentioned above for group III–V. At the end of the experimental period, animals were sacrificed by cervical decapitation and livers were dissected out immediately, rinsed in ice cold saline and stored at -20°C for further studies. The serum was collected, processed and stored for further analysis.
Histopathological studies were also performed to find out the morphological changes of liver cells after M1 administration. Liver tissues from each group were assessed for their morphological changes using hematoxylin and eosin staining. The tissues were preserved in 10% formalin overnight. […]

[2] = tested on: diethylnitrosamine-induced hepatocarcinogenic rats; assay: ALT and AST in plasma of DEN-induced HCC rats; assay type: in vivo, albino Wistar rats; conditions: 15 days, mean ± SD, n = 6
Procedure: as §1
(§2) Liver function biomarkers like aspartate aminotransferase (AST), alanine aminotransferase (ALT) were also measured in serum using commercially available kit from Ebra Diagonesis Pvt Ltd, Germany. The oxidative parameters like superoxide dismutase (SOD), thiobarbituric acid reactive substances (TBARS), protein carbonyl (PC), SOD [14], tissue catalase (CAT) and glutathione (GSH) levels were estimated in liver tissue in the similar experiment. The total protein content of each sample was measured using the Bradford reagent and bovine serum albumin was used as a standard. Conjugated bilirubin and biliverdin in liver were measured as per the following procedure stated earlier in the literature with slight modifications.

[3] = tested on: diethylnitrosamine-induced hepatocarcinogenic rats; assay: Bilirubin and biliverdin in liver of DEN-induced HCC rats; assay type: in vivo, albino Wistar rats; conditions: for Bilirubin / Biliverdin: 15 days, mean ± SD, n = 6
Procedure: as §1, §2

[4] = tested on: diethylnitrosamine-induced hepatocarcinogenic rats; assay: Oxidative stress parameters (SOD, CAT, GSH, PC, MDA) in liver of DEN-induced HCC rats; assay type: in vivo, albino Wistar rats; conditions: for CAT / MDA / PC / Reduced GSH / SOD: 15 days, mean ± SD, n = 6
Procedure: as §1, §2

albino Wistar rats = assay: Acute oral toxicity study (OECD Guidelines 423); assay type: in vivo; conditions: for Bilirubin / Bilverdin / CAT / MDA / PC / Reduced GSH / SOD: liver; for Bilirubin / Bilverdin / CAT / MDA / PC / Reduced GSH / SOD / AST / ALT: normal rats, mean±SD, n=6; for AST / ALT: plasma
Procedure: Acute oral toxicity study of M1 was performed as per revised Organization for Economic Cooperation and Development Guidelines 423. Animal Ethical Committee approved this study (Approval No. SDCOP&VS/AH/CPCSE01/017/R2). M1 was dissolved in 0.25% carboxymethyl cellulose (CMC) and administered orally at the dose of 25, 50, 100, 250 mg/kg body weight to albino Wistar rats for 4 weeks (n = 6) and the animals were observed every day for any toxic manifestations.

Structure (SMILES): COc1cc2c(cc1OC)CC(C(=O)O)NC2 (stereo not drawn) [M1, 6,7-dimethoxy-1,2,3,4-tetrahydro-isoquinoline-3-carboxylic acid]
- antiproliferative action on Huh-7 cells (Huh-7 cells): good antiproliferative action
- liver histopathology [1]: normal tissue architecture was seen; also recorded: less ruptured and denatured cells (RC and DC) than toxic control
- ALT ([2]; DEN+M1 50 mg/kg orally): 88.4 ± 3.18 U/L
- AST ([2]; DEN+M1 50 mg/kg orally): 47.73 ± 1.76 U/L
- ALT ([2]; DEN+M1 100 mg/kg orally): 58.04 ± 2.84 U/L
- AST ([2]; DEN+M1 100 mg/kg orally): 40.95 ± 1.35 U/L
- Bilirubin ([3]; DEN+M1 50 mg/kg orally): 50.59 ± 1.39 ng/μg of protein
- Biliverdin ([3]; DEN+M1 50 mg/kg orally): 21.19 ± 2.42 ng/μg of protein
- Bilirubin ([3]; DEN+M1 100 mg/kg orally): 40.64 ± 3.47 ng/μg of protein
- Biliverdin ([3]; DEN+M1 100 mg/kg orally): 16.95 ± 1.96 ng/μg of protein
- biliverdin concentration ([3]; M1-treated rats, text value (toxic control ∼28 ng)): ~16 ng
- CAT ([4]; DEN+M1 50 mg/kg orally): 6.51 ± 0.29 nM of H2O2/min/μg of protein
- MDA ([4]; DEN+M1 50 mg/kg orally): 51.60 ± 1.009 nM/μg of protein
- PC ([4]; DEN+M1 50 mg/kg orally): 0.46 ± 0.08 μM/μg of protein
- Reduced GSH ([4]; DEN+M1 50 mg/kg orally): 5.40 ± 0.42 μM/μg of protein
- SOD ([4]; DEN+M1 50 mg/kg orally): 5.92 ± 0.72 U/μg of protein
- CAT ([4]; DEN+M1 100 mg/kg orally): 7.52 ± 0.7 nM of H2O2/min/μg of protein
- MDA ([4]; DEN+M1 100 mg/kg orally): 45.20 ± 1.05 nM/μg of protein
- PC ([4]; DEN+M1 100 mg/kg orally): 0.40 ± 0.02 μM/μg of protein
- Reduced GSH ([4]; DEN+M1 100 mg/kg orally): 6.69 ± 0.30 μM/μg of protein
- SOD ([4]; DEN+M1 100 mg/kg orally): 6.14 ± 0.17 U/μg of protein
- GSH level ([4]; M1 50 mg/kg): ~5.40 µM
- GSH level ([4]; M1 100 mg/kg): ~6.69 µM
- SOD level as compared with normal group ([4]; M1-treated groups (toxic control 20–30%)): 70–80%
- PC formation ([4]; M1-treated rats, text value (toxic control ∼0.96 μM)): ~0.40 µM
- MDA formation ([4]; after M1 therapy, text value (toxic control approximately 98 nM)): ~50 nM
- changes in ALT, AST, bilirubin, biliverdin, SOD, CAT, PC, GSH, TBARS as compared with normal control (albino Wistar rats; M1 dose ranging from 25 to 250 mg/kg orally): no significant changes
- Bilirubin (albino Wistar rats; M1 25 mg/kg orally): 19.24±1.27 ng/µg of protein
- Bilverdin (albino Wistar rats; M1 25 mg/kg orally): 7.15±0.78 ng/µg of protein
- CAT (albino Wistar rats; M1 25 mg/kg orally): 8.22 ± 1.91 nM of H2O2 /min/μg of protein
- MDA (albino Wistar rats; M1 25 mg/kg orally): 9.25 ± 2.87 nM/μg of protein
- PC (albino Wistar rats; M1 25 mg/kg orally): 0.68 ± 0.17 µM/μg of protein
- Reduced GSH (albino Wistar rats; M1 25 mg/kg orally): 4.94 ± 1.17 µM/μg of protein
- SOD (albino Wistar rats; M1 25 mg/kg orally): 14.27 ± 2.88 U/μg of protein
- Bilirubin (albino Wistar rats; M1 50 mg/kg orally): 19.11±3.19 ng/µg of protein
- Bilverdin (albino Wistar rats; M1 50 mg/kg orally): 5.99±1.04 ng/µg of protein
- CAT (albino Wistar rats; M1 50 mg/kg orally): 6.94 ± 2.06 nM of H2O2 /min/μg of protein
- MDA (albino Wistar rats; M1 50 mg/kg orally): 10.11 ± 0.96 nM/μg of protein
- PC (albino Wistar rats; M1 50 mg/kg orally): 0.62 ± 0.05 µM/μg of protein
- Reduced GSH (albino Wistar rats; M1 50 mg/kg orally): 5.42 ± 1.34 µM/μg of protein
- SOD (albino Wistar rats; M1 50 mg/kg orally): 9.78 ± 1.17 U/μg of protein
- Bilirubin (albino Wistar rats; M1 100 mg/kg orally): 18.24±2.55 ng/µg of protein
- Bilverdin (albino Wistar rats; M1 100 mg/kg orally): 7.62±1.45 ng/µg of protein
- CAT (albino Wistar rats; M1 100 mg/kg orally): 8.45 ± 1.59 nM of H2O2 /min/μg of protein
- MDA (albino Wistar rats; M1 100 mg/kg orally): 11.22 ± 1.91 nM/μg of protein
- PC (albino Wistar rats; M1 100 mg/kg orally): 0.49 ± 0.07 µM/μg of protein
- Reduced GSH (albino Wistar rats; M1 100 mg/kg orally): 5.78 ± 1.65 µM/μg of protein
- SOD (albino Wistar rats; M1 100 mg/kg orally): 8.97 ± 1.95 U/μg of protein
- Bilirubin (albino Wistar rats; M1 250 mg/kg orally): 20.13±2.56 ng/µg of protein
- Bilverdin (albino Wistar rats; M1 250 mg/kg orally): 7.91±0.99 ng/µg of protein
- CAT (albino Wistar rats; M1 250 mg/kg orally): 7.38 ± 1.28 nM of H2O2 /min/μg of protein
- MDA (albino Wistar rats; M1 250 mg/kg orally): 12.33 ± 2.17 nM/μg of protein
- PC (albino Wistar rats; M1 250 mg/kg orally): 0.48 ± 0.08 µM/μg of protein
- Reduced GSH (albino Wistar rats; M1 250 mg/kg orally): 6.22 ± 1.07 µM/μg of protein
- SOD (albino Wistar rats; M1 250 mg/kg orally): 9.12 ± 1.65 U/μg of protein
- safe dose (albino Wistar rats; oral, albino Wistar rats, 4 weeks): up to 250 mg/kg body weight
- AST (albino Wistar rats; M1 25 mg/kg orally): 11.33 ± 3.67 U/L
- ALT (albino Wistar rats; M1 50 mg/kg orally): 33.16± 4.22 U/L
- AST (albino Wistar rats; M1 50 mg/kg orally): 11.90 ± 1.69 U/L
- ALT (albino Wistar rats; M1 100 mg/kg orally): 33.24 ± 1.57 U/L
- AST (albino Wistar rats; M1 100 mg/kg orally): 14.33 ± 1.28 U/L
- ALT (albino Wistar rats; M1 250 mg/kg orally): 35.11 ± 2.84 U/L
- AST (albino Wistar rats; M1 250 mg/kg orally): 14.92 ± 3.52 U/L
